Results from patent US8492346B2, “Methods of use of epsilon inhibitor compounds for the attenuation of pain” (KAI Pharmaceuticals, Inc., priority 2007, dated 2013).
“Also recorded” adds a separate entry of the source. Like-named read-outs stand apart in the source and are kept apart here. Marks after values point to notes of the source that are not given here.

How the values were obtained:
[1] = Rat pharmacokinetics, plasma levels by sandwich-based ELISA; format: in vivo
Procedure: To initially characterize the pharmacokinetics of KAI-1678 in rats, male rats were administered KAI-1678 at doses of 100 and 1,000 mcg/rat (˜300 and ˜3,000 mcg/kg) as an IV bolus injection via the tail vein. Blood samples were withdrawn periodically for up to two hours following the injection for plasma analysis of KAI-1678 levels. There were three and two animals in the 100 and 1,000 mcg dose groups, respectively, and there was consistency in KAI-1678 plasma concentrations between animals in each dose group.
In the experiment shown in FIG. 29, male rats were administered KAI-1678 as a subcutaneous bolus injection (200 microL into the left hindleg) at doses of 25 or 250 mcg/animal (approximately 80 and 800 mcg/kg, respectively). Blood samples were taken at various time points over two hours after administration of the compound to determine plasma concentrations of KAI-1678. There were three and four animals in the 25 and 250 mcg/animal dose groups, respectively, and the KAI-1678 plasma concentration measurements were consistent between animals in each dose group. Cmax occurred within 10 minutes after injection and increased in a dose-proportional manner over the two doses tested.
In the experiment shown in FIG. 30, male rats were administered KAI-1678 as a continuous subcutaneous infusion for 2 hours at doses of 19 and 190 mcg/kg/hr. Blood samples were taken at various time points throughout the infusion and for 1 hour after the end of infusion to determine plasma concentrations of KAI-1678. There were two animals per dose group and the plasma KAI-1678 concentration measurements were consistent between animals in each dose group. At the lower dose rate (19 mcg/kg/hr), plasma concentrations reached steady state (˜3 ng/mL) by 60 minutes and remained relatively constant throughout the rest of the infusion. […] At both dose rates, plasma concentrations of KAI-1678 dropped quickly after the end of infusion although compound was still detectable at both dose levels one hour after the end of infusion.

incision pain = assay: Brennan incision model; format: in vivo; details: preliminary, doses similar to carrageenan model
Text: (§1) While experiments with these models are continuing, additional work is being done in other pain models.

[2] = Dog toxicokinetics and tissue levels, 5-day subcutaneous infusion; details: for Tissue level, Dose Site Muscle, Mean / Tissue level, Dose Site Skin, Mean / Tissue level, Kidney, Mean / Tissue level, Liver, Mean / Tissue level, Lung, Mean / Tissue level, Peripheral Nerve, Mean / Tissue level, Skeletal Muscle, Mean / Tissue level, Spinal Cord, Mean / Tissue level, Brain, Mean: 25 mg/kg/day sc infusion five days
Text: The pharmacokinetics of KAI-1678 are being studied in rats administered the compound as an intravenous bolus and infusion or as a subcutaneous bolus and infusion. The toxicokinetics of KAI-1678 are being studied in dogs administered the compound as a subcutaneous infusion as part of the toxicity studies. In these studies, plasma levels of KAI-1678 have been determined using a sandwich-based ELISA assay developed at KAI Pharmaceuticals. The lower limit of quantitation of this assay is approximately 0.3 ng/mL. A similar assay has been developed to measure tissue levels of KAI-1678.
As part of a range-finding toxicology study, 6 beagle dogs (one per sex per group) were administered continuous subcutaneous infusions of KAI-1678 for 5 days at dose levels of 3, 8 and 25 mg/kg/day. Blood samples were collected at various times on Day 1 (start of infusion) and Day 6 (after the end of infusion).
As part of this study, tissues were harvested from a subset of the animals at the end of dosing.

[3] = test system: carrageenan-induced mechanical hyperalgesia; assay: Carrageenan inflammatory pain model, Randall-Selitto paw-withdrawal test; format: in vivo, rat; details: for Mechanical hyperalgesia (PWT): FIG. 18
Procedure: (§2) The nociceptive flexior reflex was quantified on lightly restrained rats by using a Basile Analgesymeter (Randall-Selitto test). Inflammatory hyperlagesia was induced by injection of Carr (1%, 5 uL, i.d.), which was injected unilaterally to the dorsum of the hindpaw one-hour prior to compound administration. The εPKC inhibitor peptide (εV1-2) was injected via systemic routes.
as §2, with “μL,” for “uL,”, “one-hr” for “one-hour”
The rat carrageenan model has been extensively used to evaluate the response to modulators of inflammatory pain. In the model used for the studies described below, a single 5 microL injection of a 1% solution of carrageenan into the plantar surface of the right hindpaw was used to elicit an inflammatory response resulting in local edema and mechanical hyperalgesia. The mechanical hyperalgesia was quantitated as previously described using measurements of the nociceptive flexion reflex (Randall-Selitto paw-withdrawal test) in response to mechanical painful stimulation at the site of carrageenan injection. […] In the absence of further treatment, the PWT remained stable at ˜55 g for several hours, making it possible to use this model to evaluate the time-course of the response to treatment over the course of at least six hours after the establishment of the disease state.

spared nerve pain = assay: Single spared nerve model; format: in vivo; details: preliminary, doses similar to carrageenan model
Text: as §1

[4] = Rat pharmacokinetics, plasma levels by sandwich-based ELISA; format: in vivo; remark: listed apart in the source

Ac-EAVSLKPTGGYGRKKRRQRRR-NH2 [KAI-1678]
Clearance from systemic circulation ([1]; intravenous bolus): rapidly cleared from systemic circulation | level at 1 h ([1]; male, rat, plasma, sc, 19 ug/kg/hr, subcutaneous infusion 19 mcg/kg/hr, by 60 minutes, read-out: Steady state plasma concentration): ~3 ng/mL | Tmax ([1]; male, rat, plasma, sc, subcutaneous bolus, read-out: Time of maximum plasma concentration (converted)): ~10 min | half-life ([1]; rat, in vivo, iv, 300 ug/kg, IV bolus ~300 mcg/kg, preliminary, read-out: Terminal half-life): ~38 min | half-life ([1]; rat, in vivo, iv, IV bolus ~300 mcg/kg, preliminary, read-out: Terminal half-life): ~38 min | half-life ([1]; rat, in vivo, iv, IV bolus ~3,000 mcg/kg, preliminary, read-out: Terminal half-life): ~66 min | half-life ([1]; rat, in vivo, iv, intravenous bolus, read-out: Terminal half-life): ~50 min | half-life ([1]; rat, in vivo, sc, 800 ug/kg, subcutaneous bolus approximately 80 and 800 mcg/kg, read-out: Terminal half-life): ~35 min | half-life ([1]; rat, in vivo, sc, subcutaneous infusion, read-out: Half-life after end of infusion): ~30 min | Cmax ([1]; rat, in vivo, sc, subcutaneous infusion 190 mcg/kg/hr for 2 hours): ~60 ng/mL | bioavailability ([1]; rat, in vivo, sc, subcutaneous route vs intravenous bolus): ~10% | Dose proportionality of exposure ([1]; subcutaneous bolus (80, 800 mcg/kg) or infusion (19, 190 mcg/kg/hr)): dose-proportional increases in exposures | Half-life after end of infusion ([1]; subcutaneous infusion): ~45 min | Time of maximum plasma concentration ([1]; subcutaneous infusion): ~1 h | Activity in Brennan incision model (incision pain): also active in these models | Tissue level, Dose Site Muscle, Mean ([2]; Animal 4001, male): 111 ng KAI-1678/g tissue | Tissue level, Dose Site Skin, Mean ([2]; Animal 4001, male): 1139 ng KAI-1678/g tissue | Tissue level, Kidney, Mean ([2]; Animal 4001, male): 689 ng KAI-1678/g tissue | Tissue level, Liver, Mean ([2]; Animal 4001, male): 224 ng KAI-1678/g tissue | Tissue level, Lung, Mean ([2]; Animal 4001, male): 254 ng KAI-1678/g tissue | Tissue level, Peripheral Nerve, Mean ([2]; Animal 4001, male): 429 ng KAI-1678/g tissue | Tissue level, Skeletal Muscle, Mean ([2]; Animal 4001, male): 133 ng KAI-1678/g tissue | Tissue level, Spinal Cord, Mean ([2]; Animal 4001, male): 11 ng KAI-1678/g tissue | Tissue level, Brain, Mean ([2]; Animal 4001, male, includes a data point below limit of quantitation): 6* ng KAI-1678/g tissue | Tissue level, Brain, Mean ([2]; Animal 4501, female): 7 ng KAI-1678/g tissue | Tissue level, Dose Site Muscle, Mean ([2]; Animal 4501, female): 1003 ng KAI-1678/g tissue | Tissue level, Dose Site Skin, Mean ([2]; Animal 4501, female): 6165 ng KAI-1678/g tissue | Tissue level, Kidney, Mean ([2]; Animal 4501, female): 3054 ng KAI-1678/g tissue | Tissue level, Liver, Mean ([2]; Animal 4501, female): 1505 ng KAI-1678/g tissue | Tissue level, Lung, Mean ([2]; Animal 4501, female): 1364 ng KAI-1678/g tissue | Tissue level, Peripheral Nerve, Mean ([2]; Animal 4501, female): 155 ng KAI-1678/g tissue | Tissue level, Skeletal Muscle, Mean ([2]; Animal 4501, female): 33 ng KAI-1678/g tissue | Tissue level, Spinal Cord, Mean ([2]; Animal 4501, female): 140 ng KAI-1678/g tissue | Clearance from systemic circulation / plasma level after end of infusion ([2]; subcutaneous infusion over 5 days, 3, 8 and 25 mg/kg/day): rapidly cleared from the systemic circulation; also recorded: declined quickly upon cessation of infusion | Levels in brain and spinal cord ([2]; subcutaneous infusion over 5 days, end of infusion): consistently low | Ability to reverse mechanical hyperalgesia in sympathectomized animals ([3]; 25 mcg/kg/hr subcutaneous infusion, contralateral hindlimb, FIG. 24): abrogated | Carrageenan-induced mechanical hyperalgesia after sciatic and saphenous nerve transection ([3]; 25 mcg/kg/hr subcutaneous infusion, contralateral limb, proximal or distal to transection, FIG. 23): effective at eliminating carrageenan-induced mechanical hyperalgesia when the site of compound administration was proximal, but not distal, to the site of nerve transection | Carrageenan-induced mechanical hyperalgesia ([3]; IV infusion, rates as high as 1000 mcg/kg/hr for as long as 5 hours, FIG. 22): had no effect on carrageenan-induced mechanical hyperalgesia | Mechanical hyperalgesia (PWT) ([3]; intradermal 10 mcg/kg, ipsilateral hindpaw): completely reverse the mechanical hyperalgesia | Mechanical hyperalgesia (PWT) ([3]; intradermal 10 or 100 mcg/kg, contralateral hindpaw): completely reverse the mechanical hyperalgesia | Time to complete reversal of mechanical hyperalgesia ([3]; intradermal 100 mcg/kg, ipsilateral): ≤ 5 min | Mechanical hyperalgesia (PWT) ([3]; intradermal 100 mcg/kg, ipsilateral hindpaw): increasing the PWT beyond the pre-carrageenan levels | Lowest dose completely reversing mechanical hyperalgesia ([3]; subcutaneous bolus, contralateral hindlimb, for a short period): 0.1 µg/kg | Pain response (mechanical hyperalgesia) ([3]; subcutaneous bolus, thigh of contralateral hindlimb, FIG. 19): dose-dependent suppression in the pain response | Reversal of pain ([3]; subcutaneous infusion 250 mcg/kg/hr): rapid and sustained without any recurrence of hyperalgesia | Effect on mechanical hyperalgesia ([3]; subcutaneous infusion 25,000 mcg/kg/hr, data not shown): comparable to that seen with the 250 mcg/kg/hr infusion | Mechanical hyperalgesia, first phase of subcutaneous infusion ([3]; subcutaneous infusion, first phase approximately one hour, FIG. 21): rapid and complete reversal of the mechanical hyperalgesia at all doses tested | Dose rate completely reversing mechanical hyperalgesia in second phase ([3]; subcutaneous infusion, second phase two to three hours after start): ≥ 25 µg/kg/h | Activity in single spared nerve model (spared nerve pain): also active in these models | Steady state plasma concentration ([4]; 2-hr intravenous infusion at 50 mcg/kg/hr): 10 to 20 ng/mL | half-life ([4]; rat, in vivo, iv, intravenous infusion, read-out: Terminal half-life): ~25 min
